The source of these data is patent publication US9707249B2, “Trehalulose-containing composition, its preparation and use” (SÜDZUCKER AKTIENGESELLSCHAFT MANNHEIM/OCHSENFURT, priority 2009, dated 2017).

SMILES strings stand for the structures.

Series [1] is described as follows: Blood insulin response (insulinemic index, II) after consumption, randomized cross over analysis. The format is in vivo, human. The following applies: ten healthy subjects, 25 g carbohydrate and 250 ml water, 0 to 180 minutes. As for the experimental part:
(§1) The effect of trehalulose on the blood glucose response (glycemic index, GI) and the insulin response (insulinemic index, II) was examined in comparison to isomaltulose. The analysis was done as a randomized cross over analysis on ten healthy subjects of both sex. Blood glucose- and insulin-profiles were taken after consumption of isomaltulose or trehalulose (each 25 g carbohydrate and 250 ml water) for an interval of 0 to 180 minutes at the following time points 0, 15, 30, 45, 60, 90, 120, 150 and 180 minutes.

A short description of series [2]: Stability of trehalulose during preparation (cooking) of jellies. Format: physicochemical. As to conditions: when cooking the jellies. How it is done:
In the following, four recipes for jellies using as sweeteners a mixture of sucrose and glucose and four recipes using the trehalulose-containing composition, that means vitalose, of the present invention are prepared. The jellies prepared were tested comparatively in storage and TPA-analysis.
In all of the jelly recipes the conventional sweetener combination of sucrose and glucose could be successfully replaced by the trehalulose-containing composition, that means vitalose, of the present invention. The preparation using the trehalulose-containing composition, that means vitalose, was exactly as for the sucrose/glucose compositions.

A short description of series [3]: Blood glucose response (glycemic index, GI) after consumption, randomized cross over analysis. Format: in vivo, human. As to conditions: ten healthy subjects, 25 g carbohydrate and 250 ml water, 0 to 180 minutes, compared to isomaltulose. How it is done:
as §1

As to `O=C(CO)[C@@H](O)[C@H](O)[C@H](O)CO[C@H]1O[C@H](CO)[C@@H](O)[C@H](O)[C@H]1O` [isomaltulose, 6-O-α-D-glucopyranosyl-D-fructose, reference compound], the “insulin response (II), blood insulin level” value in series [1] is listed as “in parallel to the blood glucose response”.

On to `O=C(CO[C@H]1O[C@H](CO)[C@@H](O)[C@H](O)[C@H]1O)[C@@H](O)[C@H](O)[C@H](O)CO` [trehalulose, 1-O-α-D-glucopyranosyl-D-fructose], for which, in series [1], the “insulin response (II), blood insulin level” value is given as “significantly lower insulin response (II) than isomaltulose”. In series [2], the degradation during preparation result is on record as “no degradation of trehalulose was observed”. Also, the “blood glucose response (GI), blood glucose level” value in series [3] was “increased and longer sustaining supply of glucose”.
